Assay results: ChEMBL document CHEMBL1151967, “Cytotoxic biscembranes from the soft coral Sarcophyton glaucum” (J Nat Prod, 2009)

Tested on: HL-60
Assay: Cytotoxicity against human HL60 cells
Type: functional, cell-based

SMILES: COC(=O)[C@]12CC(=O)[C@H](C(C)C)CC(=O)/C(C)=C\CC/C(C)=C/C(=O)[C@H]1CC(C)=C1C[C@H](OC(C)=O)[C@](C)(O)[C@H]3CC[C@@](C)(O)[C@H](CC/C(C)=C/[C@@H]12)O3 [BISGLAUCUMLIDE F]
- IC50: 13.3 µM

SMILES: COC(=O)[C@]12CC(=O)[C@H](C(C)C)CC(=O)/C(C)=C/CC/C(C)=C/C(=O)[C@H]1CC(C)=C1C[C@H](O)[C@](C)(O)[C@H]3CC[C@](C)(O3)[C@@H](O)CC/C(C)=C/[C@@H]12 [BISGLAUCUMLIDE G]
- IC50: 58 µM

SMILES: COC(=O)[C@]12CC(=O)[C@H](C(C)C)CC(=O)/C(C)=C/CC/C(C)=C\C(=O)[C@H]1CC(C)=C1C[C@H](O)[C@](C)(O)[C@H]3CC[C@@](C)(O)[C@H](CC/C(C)=C/[C@@H]12)O3 [BISGLAUCUMLIDE E]
- IC50: 41 µM

SMILES: COC(=O)[C@]12CC(=O)[C@H](C(C)C)CC(=O)/C(C)=C/CC/C(C)=C\C(=O)[C@H]1CC(C)=C1C[C@H](O)[C@](C)(O)[C@H]3CC[C@@](C)(O3)[C@@H](O)CC/C(C)=C/[C@@H]12 [BISGLAUCUMLIDE H]
- IC50: 47.8 µM

SMILES: COC(=O)[C@]12CC(=O)/C=C(\C)CC/C=C(\C)C(=O)C[C@@H](C(C)C)C(=O)[C@H]1CC(C)=C1C[C@H](OC(C)=O)[C@](C)(O)[C@H]3CC[C@@](C)(O)[C@H](CC/C(C)=C/[C@@H]12)O3 [BISGLAUCUMLIDE K]
- IC50: 29.8 µM

SMILES: COC(=O)[C@]12CC(=O)/C=C(/C)CC/C=C(\C)C(=O)C[C@@H](C(C)C)C(=O)[C@H]1CC(C)=C1C[C@H](O)[C@](C)(O)[C@H]3CC[C@@](C)(O)[C@H](CC/C(C)=C/[C@@H]12)O3 [BISGLAUCUMLIDE I]
- IC50: 44.1 µM
